The values that follow come from publication PMC11394424, “The RAL Small G Proteins Are Clinically Relevant Targets in Triple Negative Breast Cancer” (Cancers, 2024).

The test has as its target T1, RALA (Homo sapiens, UniProt P11233).
T1 construct: recombinant RALA, site-specifically biotinylated on the N-terminus
T1 sequence (P11233 1-203): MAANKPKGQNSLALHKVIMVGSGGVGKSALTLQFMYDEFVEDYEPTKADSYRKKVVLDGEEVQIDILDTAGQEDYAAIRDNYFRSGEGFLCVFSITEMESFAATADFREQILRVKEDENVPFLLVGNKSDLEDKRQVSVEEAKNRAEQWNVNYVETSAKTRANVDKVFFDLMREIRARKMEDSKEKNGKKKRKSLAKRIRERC
In words: SPR (Biacore 8K, steady-state affinity, biotinylated RALA on SA chip). The class given is binding. In general terms: Surface plasmon resonance follows binding to a sensor surface in real time, without labels.

Turning to OSURALi, binding was characterised by a dissociation constant (Kd) of 0.948 µM. That is a sub-micromolar value.

A word on the Kd: it is a measure of binding affinity in units of concentration. A high value points to a looser complex.
